Results on 2 compounds are retold here after publication PMC10288505, “Photoswitchable Calixarene Activators for Controlled Peptide Transport across Lipid Membranes” (Journal of the American Chemical Society, 2023).

The test system of this assay is R8. Kind of assay: Indicator displacement assay with host:LCG reporter pair, guest R8. Conditions: association constant, competitive dye displacement with LCG, 5 mM phosphate buffer pH 7.3; only the lower limit can be estimated. The assay is classed as binding. The text has this: The binding affinity of the anionic calixarene activators toward cationic peptides was investigated using a small library of highly hydrophilic oligoarginines, from 3 to 8 residues. These peptides are not able to spontaneously transverse zwitterionic artificial membranes in vesicle assays, which allows the accurate evaluation of the calixarenes 1 and 2 as counterion activators without interferences from the transport of the peptide alone.[43]−[45] First, the formation of host–guest complexes between 1/2 and the selected peptides was verified by indicator displacement assays using lucigenin (LCG) as the fluorescent indicator.[46] As previously reported for other sulfonatocalixarene derivatives,[46] the formation of host–guest binding pairs between calixarenes 1/2 in the E- and Z-forms and LCG results in significant static fluorescence quenching (see Figure 2A and Figures S26 and S27). Quantitative analysis of the fluorescence titration data using a 1:1 host:guest binding model allows the determination of the respective binding constants (K) reported in Table 1. As can be observed, both 1/2 display high affinity for the LCG dye, on the 10^7 M^–1 range, which seems to be independent of the nature and conformation of the azobenzene arm. […] The host:LCG binding pairs were then employed in the above-mentioned indicator displacement assays to investigate the binding affinity of oligoarginines toward 1 and 2 (see Figure 2B and Figures S29–S33).
The binding affinities of the counterion activators and peptide complexes were analyzed by indicator displacement assays. […] Firstly, the affinity for LCG was calculated for each of the activators, by titrations followed by fluorescence spectroscopy leading to almost full quenching of the emission. […]
Figure S26 - Fluorescence titration of the lucigenin dye with increasing concentrations of A) E-1 and B) Z–1 in water (5 mM phosphate buffer pH 7.3). […]

As for `O=S(=O)([O-])c1cc2c(O)c(c1)Cc1cc(S(=O)(=O)[O-])cc(c1O)Cc1cc(S(=O)(=O)[O-])cc(c1OCCCCCCOc1ccc(/N=N/c3ccccc3)cc1)Cc1cc(S(=O)(=O)[O-])cc(c1O)C2.[Li+].[Li+].[Li+].[Li+]` [E-1], the “Apparent affinity constant K for R8” value is given as >5 × 10^8 ^a M^–1.
For the compound `CCCCc1ccc(/N=N/c2ccc(OCCCOc3c4cc(S(=O)(=O)[O-])cc3Cc3cc(S(=O)(=O)[O-])cc(c3O)Cc3cc(S(=O)(=O)[O-])cc(c3O)Cc3cc(S(=O)(=O)[O-])cc(c3O)C4)cc2)cc1.[Li+].[Li+].[Li+].[Li+]` [E-2], the “Apparent affinity constant K for R8” value is listed as >5 × 10^8 ^a M^–1.
